The record followed here is patent publication US10034886B2, “GLP-1 receptor modulators” (Celgene International II SÀRL, priority 2014, dated 2018).

As a reminder, the EC50 is the concentration giving half of the maximal effect.

Where two headings read alike, the source gives them in different places. Some results are limits rather than exact numbers.

The target in the experiment is T1, GLP-1R (Homo sapiens, UniProt P43220).
T1 construct: host or cells: GLP-1R CRE-bla CHO-K1 cells
The experiment is described as follows: EC20 GLP-1(9-36) PAM cAMP assay: dose response of compound in the presence of fixed concentration of GLP-1(9-36). It is filed as cell-based. Particulars: GLP-1R CRE-bla CHO-K1 cells, read-out: EC20 GLP-1(9-36) PAM EC50. A digest of the protocol: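 GLP-1R CRE-bla CHO-K1 cells treated 30 min at 37 °C with 12-point compound dose response plus fixed EC20 GLP-1(9-36), with IBMX, in HBSS/HEPES/0.1% BSA pH 7.4. Total cAMP measured by luminescent detection against standard curve; EC50 and Emax from non-linear regression.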
For orientation: Changes in cAMP serve as a functional read-out for many G protein-coupled receptors.

[1] abbreviates: compound dose response with fixed concentration of GLP-1(9-36).
[2] abbreviates: dose response of compound in presence of fixed concentration of GLP-1(9-36).

T1 sequence (P43220 24-463): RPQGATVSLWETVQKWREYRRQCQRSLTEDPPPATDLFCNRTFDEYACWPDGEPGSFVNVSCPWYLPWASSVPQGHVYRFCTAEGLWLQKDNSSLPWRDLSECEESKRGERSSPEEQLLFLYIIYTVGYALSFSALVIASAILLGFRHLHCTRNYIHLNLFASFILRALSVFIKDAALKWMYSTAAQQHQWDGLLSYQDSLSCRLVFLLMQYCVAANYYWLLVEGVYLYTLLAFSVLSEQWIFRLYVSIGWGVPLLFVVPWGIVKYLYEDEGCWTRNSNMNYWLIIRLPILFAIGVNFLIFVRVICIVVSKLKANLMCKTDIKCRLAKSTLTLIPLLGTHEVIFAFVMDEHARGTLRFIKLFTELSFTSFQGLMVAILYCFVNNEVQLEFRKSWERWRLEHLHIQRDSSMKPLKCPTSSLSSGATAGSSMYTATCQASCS
T1 sequence (P01275 100-127 partner limits assumed): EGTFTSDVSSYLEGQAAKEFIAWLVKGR

`CC(C)(C)c1ccc(C(=O)N[C@@H](Cc2ccc(-c3ncc(-c4ccc([C@H]5CC[C@@H](C)CC5)cc4)cn3)cc2)C(=O)O)s1` [Compound 1357]: under setting [1], the EC50 was in the range of 2.5 to 5 µM.

For `CCCCCCCOc1ccc(-c2cnc(-c3ccc(C[C@H](NC(=O)c4ccc(C(C)(C)C)s4)C(=O)N[C@@H](CC(=O)O)C(=O)N(C)CCN(C)C)cc3)nc2)cc1` [Compound 531], the half-maximal effective concentration (EC50) under setting [2] is 0.8 to 2.5 µM.

For the compound `CCCCCCCOc1ccc(-c2cnc(-c3ccc(C[C@H](NC(=O)c4ccn(C(C)(C)C)c4)C(=O)N[C@H](C)C(=O)O)cc3)nc2)cc1` [Compound 838], the concentration giving a half-maximal response (EC50) under setting [2] lay within 0.8 to 2.5 µM.

Consider `CCCCCCCOc1ccc(-c2cnc(-c3ccc(C[C@H](NC(=O)c4ccc(C(C)(C)C)s4)C(=O)NCCCN(C)C)cc3)nc2)cc1` [Compound 962], for which the EC50 under setting [2] lay in the range of 0.8 to 2.5 µM. For the compound `CCCCCCCOc1ccc(-c2cnc(-c3ccc(C[C@H](NC(=O)c4ccc(C(C)(C)C)s4)C(=O)N4CC[C@H](C(=O)NS(C)(=O)=O)C4)cc3)nc2)cc1` [Compound 884], the EC50 under setting [2] is 0.8 to 2.5 µM. Same read-out and setting: the result for `CCCCCCCOc1ccc(-c2cnc(-c3ccc(C[C@H](NC(=O)c4ccc(C(C)(C)C)cc4)C(=O)NC(CC(=O)O)c4cccc(O)c4)cc3)nc2)cc1` (stereo partly shown) [Compound 538] reads 5 to 10 µM; that for `CCCCCCCOc1ccc(-c2cnc(-c3ccc(C[C@H](NC(=O)c4ccc(C(C)(C)C)s4)C(=O)N4CC(OC)(C(=O)O)C4)cc3)nc2)cc1` [Compound 873], less than 0.8 µM; that for `CC(C)(C)c1ccc(C(=O)N[C@@H](Cc2ccc(-c3ncc(-c4ccc(C5CCCC5)cc4)cn3)cc2)C(=O)N2CCC[C@H]2C(=O)O)s1` [Compound 1123], 0.8 to 2.5 µM. Same read-out and setting: the same measure for `CCCCCOc1ccc(-c2cnc(-c3ccc(C[C@H](NC(=O)c4ccc(C(C)(C)C)cc4)C(=O)NCCC(=O)O)cc3)nc2)cc1` [Compound 489]: 0.8 to 2.5 µM; for `CC(C)(C)c1ccc(C(=O)N[C@@H](Cc2ccc(-c3ncc(-c4ccc(-c5ccc(C#N)cc5)cc4F)cn3)cc2)C(=O)N2CC(C(=O)O)C2)s1` [Compound 1201]: less than 0.8 µM; for `CCCCCCCOc1ccc(-c2cnc(-c3ccc(C[C@H](NC(=O)c4ccc(C(C)(C)C)cc4)C(=O)NC(CO)CC(=O)O)cc3)nc2)cc1` (stereo partly shown) [Compound 550]: 0.8 to 2.5 µM.

With `CCCCCCCOc1ccc(-c2cnc(-c3ccc(C(NC(=O)c4ccc(C(C)(C)C)s4)C(=O)O)cc3)nc2)cc1` (stereo not shown) [Compound 289, 2-(5-(tert-butyl)thiophene-2-carboxamido)-2-(4-(5-(4-(heptyloxy)phenyl)pyrimidin-2-yl)phenyl)acetic acid], under setting [2], the half-maximal effective concentration (EC50) lay within 2.5 to 5 µM. On the same count and under the same terms, the result for `CC1(C)CCC(c2ccc(-c3cnc(-c4ccc(C[C@H](NC(=O)c5ccc(C(C)(C)C)s5)C(=O)N5CC(C(=O)O)C5)cc4)nc3)cc2)CC1` [Compound 1088] reads less than 0.8 µM. Take `COc1ccccc1C1CCN(c2cnc(-c3ccc(C[C@H](NC(=O)c4ccc(C(C)(C)C)s4)C(=O)N4CC(C(=O)O)C4)cc3)nc2)CC1` [Compound 1492]: the 50% effective concentration (EC50) under setting [1] was in the range of 0.8 to 2.5 µM. In the case of `CCCCCc1ccc(-c2cnc(-c3ccc(C[C@H](NC(=O)c4ccc(C(C)(C)C)cc4)C(=O)NCCC(=O)O)cc3)nc2)cc1` [Compound 676], the EC50 under setting [2] lay in the range of 2.5 to 5 µM. The same measure, in the same setting: the result for `CCCCCCCOc1ccc(-c2cnc(-c3ccc(C[C@H](NC(=O)c4ccc(C(C)(C)C)s4)C(=O)NC(C(=O)O)C(O)C4CCCCC4)cc3)nc2)cc1` (stereo partly shown) [Compound 914] reads 2.5 to 5 µM. On the same count and under the same terms, the same measure for `CCCCCCCCc1ccc(-c2cnc(-c3ccc(C[C@H](NC(=O)c4ccc(C(C)(C)C)cc4)C(=O)NCCC(=O)O)cc3)nc2)cc1` [Compound 683]: 0.8 to 2.5 µM; for `C[C@@H](NC(=O)[C@H](Cc1ccc(-c2ncc(-c3ccc([C@H]4CC[C@H](C(C)(C)C)CC4)cc3)cn2)cc1)NC(=O)c1ccc(C(C)(C)C)s1)C(=O)O` [Compound 1143]: less than 0.8 µM. As for `CCCc1ccc(C2CCN(c3cnc(-c4ccc(C[C@H](NC(=O)c5ccc(C(C)(C)C)s5)C(=O)N5CC(C(=O)O)C5)cc4)nc3)CC2)cc1` [Compound 1432], the EC50 under setting [1] is less than 0.8 µM. In the case of `CCCCCCCOc1ccc(-c2cnc(-c3ccc(C[C@H](NC(=O)c4ccc(C(C)(C)C)s4)C(=O)NC(C(=O)O)C(O)c4cc(C)no4)cc3)nc2)cc1` (stereo partly shown) [Compound 912], the EC50 under setting [2] is less than 0.8 µM. As for `COc1cc(-c2cnc(-c3ccc(C[C@H](NC(=O)c4ccc(C(C)(C)C)s4)C(=O)N[C@H](C)C(=O)O)cc3)nc2)ccc1OCc1ccccc1` [Compound 999], the concentration for a half-maximal effect (EC50) under setting [2] is 2.5 to 5 µM. Consider `CCCCCCCOc1ccc(-c2cnc(-c3ccc(C[C@H](NC(=O)c4ccc(O)c(F)c4)C(=O)N4CC[C@H](C(=O)O)C4)cc3)nc2)cc1` [Compound 1096], for which the 50% effective concentration (EC50) under setting [2] was in the range of 0.8 to 2.5 µM. Still for that read-out and setting: the result for `C[C@@H](NC(=O)[C@H](Cc1ccc(-c2ncc(-c3cc4ccccc4s3)cn2)cc1)NC(=O)c1ccc(C(C)(C)C)s1)C(=O)O` [Compound 1024] reads 0.8 to 2.5 µM.

On to `CCCCCCCOc1ccc(-c2cnc(-c3ccc(C[C@H](NC(=O)c4ccc(C(C)(C)C)s4)C(=O)N4CCC[C@H]4C(=O)NS(=O)(=O)CC(=O)OC)cc3)nc2)cc1` [Compound 496], for which, under setting [2], the EC50 was less than 0.8 µM. On the same count and under the same terms, the result for `CCCc1ccc(-c2ccc(-c3cnc(-c4ccc(C[C@H](NC(=O)c5ccc(C(C)(C)C)s5)C(=O)O)cc4)nc3)c(F)c2)cc1` [Compound 1061] reads 2.5 to 5 µM; that for `CCC(C)COc1ccc(-c2cnc(-c3ccc(C[C@H](NC(=O)c4ccc(C(C)(C)C)s4)C(=O)N4CC(C(=O)O)C4)cc3)nc2)cc1` (stereo partly shown) [Compound 797], 0.8 to 2.5 µM; that for `CCCCCCCOc1ccc(-c2cnc(-c3ccc(C[C@H](NC(=O)c4ccc(C(C)(C)C)s4)C(=O)NCCOC)cc3)nc2)cc1` [Compound 386], 0.8 to 2.5 µM. Take `CC(C)(C)c1ccc(C(=O)NC(Cc2ccc(-c3ncc(N4CCC(c5cccc(F)c5)CC4)cn3)cc2)C(=O)N2CC(C(=O)O)C2)s1` (stereo not shown) [Compound 1484]: the half-maximal effective concentration (EC50) under setting [1] fell in the range of 0.8 to 2.5 µM.

Turning to `CC(C)(C)c1ccc(C(=O)N[C@@H](Cc2ccc(-c3ncc(N4CCC(c5cccc(Cl)c5)CC4)cn3)cc2)C(=O)N2CC(C(=O)O)C2)s1` [Compound 1479], the EC50 under setting [1] lay within 0.8 to 2.5 µM. As to `CCCCCCCOc1ccc(-c2cnc(-c3ccc(C[C@H](NC(=O)c4ccc(C(C)(C)C)s4)C(=O)N[C@@H](CC(=O)NCC(=O)O)C(=O)O)cc3)nc2)cc1` [Compound 515], the half-maximal effective concentration (EC50) under setting [2] was less than 0.8 µM. Regarding `CCc1ccc(CCc2cnc(-c3ccc(C[C@H](NC(=O)c4ccc(C(C)(C)C)s4)C(=O)N[C@H](C)C(=O)O)cc3)nc2)cc1` [Compound 1274], under setting [1], the half-maximal effective concentration (EC50) was in the range of 2.5 to 5 µM. For `CC(C)(C)c1ccc(C(=O)N[C@@H](Cc2ccc(-c3ncc(-c4ccc(-c5ccc(OC(F)(F)F)cc5)cc4)cn3)cc2)C(=O)O)s1` [Compound 1356, (S)-2-(5-(tert-butyl)thiophene-2-carboxamido)-3-(4-(5-(4′-(trifluoromethoxy)-[1,1′-biphenyl]-4-yl)pyrimidin-2-yl)phenyl)propanoic acid], the 50% effective concentration (EC50) under setting [1] is less than 0.8 µM. As to `CC(C)(C)CCOc1ccc(-c2cnc(-c3ccc(C[C@H](NC(=O)c4ccc(C(C)(C)C)s4)C(=O)N4CC(C(=O)O)C4)cc3)nc2)cc1` [Compound 796], the concentration for a half-maximal effect (EC50) under setting [2] is less than 0.8 µM. Still for that read-out and setting: the result for `C[C@@H](NC(=O)[C@H](Cc1ccc(-c2ncc(-c3ccc(C(=O)NCC4CCCCC4)cc3)cn2)cc1)NC(=O)c1ccc(C(C)(C)C)s1)C(=O)O` [Compound 1043] reads 2.5 to 5 µM.

For `COc1cc(C(=O)N[C@@H](Cc2ccc(-c3ncc(-c4ccc(OCCCC(C)C)cc4)cn3)cc2)C(=O)N2CC(C(=O)O)C2)ccc1C(C)(C)C` [Compound 1239], the EC50 under setting [1] was in the range of 0.8 to 2.5 µM. With `CCCCCCCOc1ccc(-c2cnc(-c3ccc(C[C@H](NC(=O)c4ccc(C(C)(C)C)s4)C(=O)NC(C(=O)O)C(O)c4cccs4)cc3)nc2)cc1` (stereo partly shown) [Compound 888], the 50% effective concentration (EC50) under setting [2] was 0.8 to 2.5 µM. As to `C[C@@H](NC(=O)[C@H](Cc1ccc(-c2ncc(-c3cccc(C(=O)Nc4cccc(F)c4)c3)cn2)cc1)NC(=O)c1ccc(C(C)(C)C)s1)C(=O)O` [Compound 1032], under setting [2], the EC50 fell in the range of 0.8 to 2.5 µM. The same measure, in the same setting: the same measure for `CCCCCCNc1ccc(-c2cnc(-c3ccc(C[C@H](NC(=O)c4ccc(C(C)(C)C)cc4)C(=O)NCCC(=O)O)cc3)nc2)cc1` [Compound 686]: 2.5 to 5 µM; for `CCCCCCCOc1ccc(-c2cnc(-c3ccc(C[C@H](NC(=O)c4ccc(C(C)(C)C)s4)C(=O)NC(C(=O)O)[C@H](C)c4ccccc4)cc3)nc2)cc1` (stereo partly shown) [Compound 896]: 5 to 10 µM. Same read-out and setting: the same measure for `CCCCCCCOc1ccc(-c2cnc(-c3ccc(C[C@H](NC(=O)c4ccc(C(C)(C)C)s4)C(=O)N[C@@H](C(=O)O)[C@H](C)O)cc3)nc2)cc1` [Compound 664]: 2.5 to 5 µM.

On to `CC[C@H]1CC[C@H](c2ccc(-c3cnc(-c4ccc(C[C@H](NC(=O)c5ccc(C(C)(C)C)s5)C(=O)N5CC[C@H](C(=O)O)C5)cc4)nc3)cc2)CC1` [Compound 1137], for which the 50% effective concentration (EC50) under setting [2] is less than 0.8 µM. On the same count and under the same terms, the result for `CC[C@H]1CC[C@H](c2ccc(-c3cnc(-c4ccc(C[C@H](NC(=O)c5ccc(C(C)(C)C)nc5)C(=O)N5CC(C(=O)O)C5)cc4)nc3)cc2)CC1` [Compound 1163] reads less than 0.8 µM. Regarding `CCCc1ccc(-c2ccc(-c3cnc(-c4ccc(C[C@H](NC(=O)c5ccc(C(C)(C)C)s5)C(=O)N5CC(C(=O)O)C5)cc4)nc3)c(F)c2)cc1` [Compound 1208], under setting [1], the concentration for a half-maximal effect (EC50) is less than 0.8 µM. Still for that read-out and setting: the result for `CCCCCOc1ccc(-c2ccc(-c3cnc(-c4ccc(C[C@H](NC(=O)c5ccc(C(C)(C)C)s5)C(=O)N[C@H](C)C(=O)O)cc4)nc3)cc2)cc1` [Compound 1309] reads 0.8 to 2.5 µM. On to `CCCCCCCOc1ccc(-c2cnc(-c3ccc(C[C@H](NC(=O)c4ccc(C(C)(C)C)cc4)C(=O)N[C@H](CC(=O)O)C(=O)NC)cc3)nc2)cc1` [Compound 589], for which the EC50 under setting [2] was in the range of 0.8 to 2.5 µM. Turning to `CC[C@H]1CC[C@H](c2ccc(-c3cnc(-c4ccc(C[C@H](NC(=O)c5ccc(C(F)(F)F)s5)C(=O)O)cc4)nc3)cc2)CC1` [Compound 1369], the half-maximal effective concentration (EC50) under setting [1] was 0.8 to 2.5 µM.
